# Test results taken from patent US20180021234A1, “Oral Care Compositions and Methods of Use” (Colgate-Palmolive Company, priority 2015, published 2018).
# Legend:
# [1] = test system: biofilms formed from native saliva on hydroxyapatite (HAP) disks; assay: Active-attachment biofilm model, lactic acid production (residual metabolic activity); type: cell-based; settings: for metabolic activity relative to control groups (water) and variable groups: Example 5
# Procedure: (§1) The active-attachment biofilm model has been previously described by Extercate et al. Caries Research 2010; 44: 372-379, the contents of which are incorporated by reference herein. The biofilm model consists of a metal lid with 24 clamps carrying hydroxyapatite (HAP) disks. The model is inoculated in 24-well plates with native saliva. Biofilms were formed via active recruitment of bacteria onto free-hanging HAP disks.
# (§2) Treatment is performed after formation of a 24 h biofilm. Lactic acid production is determined to assess the residual metabolic activity of biofilms after repeated exposure to test products. The assay is conducted using a L-Lactate Assay Kit according to the manufacturer's protocol (Cayman Chemical Company, Cat. No. 700510).
# The anti-metabolic activity of arginine alone and combined with zinc on bacteria in solutions and in toothpastes is measured by lactic acid production during a 3-hour window after the last treatment. The bacterial metabolic activity, as measured by lactic acid production, decreases in (toothpaste) groups with:
# The antibacterial activity of serine and lysine is assessed individually and in combination with zinc and determined by lactic acid production during a 3-hour window after the last treatment according to Example 1.
# The anti-metabolic activity of serine and lysine individually, and in combination with zinc, are tested. Using the biofilm model described in Example 1, antibacterial activity of serine and lysine is tested individually and in combination with zinc.
# [2] = test system: biofilms formed from native saliva on hydroxyapatite (HAP) disks; assay: Active-attachment biofilm model, colony forming units (live counts); type: cell-based; settings: for number of CFUs relative to control solutions (water) and variable groups: Example 4; for number of CFUs relative to control solutions (water) and variable groups / Log CFU/ml: solutions; for Log CFU/ml: Example 4 (serine, lysine, with or without zinc)
# Procedure: as §1, §2
# Colony forming units (CFUs) are determined to assess the anti-bacterial efficacy of test solutions after repeated exposure to biofilms. HAP disks are removed from the lid and transferred to 1.5 ml CPW for sonication. CFUs are determined by colony counting. Statistical analysis was performed using Minitab 16 Software. ANOVA and Tukey test were performed on available CFU counts and lactic acid values.
# Anti-bacterial efficacy of arginine alone and in combination with zinc in solutions and in toothpastes is tested by live counts using the biofilm model described in Example 1. The approximate number of live counts (CFUs) are as follows: […]
# [3] = solution, lactic acid production during a 3-hour window after the last treatment
# [4] = solutions, Example 5 (serine, lysine, with or without zinc)
smiles,measurement,setting,value
"O=C([O-])CC(O)(CC(=O)[O-])C(=O)[O-].O=C([O-])CC(O)(CC(=O)[O-])C(=O)[O-].[Zn+2].[Zn+2].[Zn+2] [0.25% zinc citrate, zinc citrate]",Lactate,[1]; [3],6.0 mM
"[O-2].[Zn+2] [0.5% zinc oxide, zinc oxide]",Lactate,[1]; [3],6.25 mM
same,CFU/ml,"[2]; solution, live counts, biofilm model of Example 1",9.65 Log CFU/ml
"NCCCC[C@H](N)C(=O)O [4% lysine, lysine]",metabolic activity relative to control groups (water) and variable groups,[1]; solutions,do not demonstrate a decrease in metabolic activity
same,Lactate,[1]; [4],2.7 mM
same,number of CFUs relative to control solutions (water) and variable groups,[2],do not demonstrate a decrease
same,Log CFU/ml,[2],9.37 Log CFU/ml
"N[C@@H](CO)C(=O)O [4% serine, serine]",metabolic activity relative to control groups (water) and variable groups,[1]; solutions,do not demonstrate a decrease in metabolic activity
same,Lactate,[1]; [4],2.4 mM
same,number of CFUs relative to control solutions (water) and variable groups,[2],do not demonstrate a decrease
same,Log CFU/ml,[2],9.45 Log CFU/ml
